How the values were obtained:
[1] = system: HCV sub-genomic replicon of genotype 1a in replicon cell line W11.8; test: microbe, parasite or virus in culture; assay type: cell-based, Hepatitis C virus; conditions: Hepatitis C virus, W11.8, 96 h, read-out: HCV-Replicon-ELISA-1a IC50
[2] = [3H]Thymidine incorporation assay (cytotoxicity, CC50); conditions: human

SMILES	IC50 [1] [nM]	CC50 at 72 h [2] [µM]
CC(C)(C)C#Cc1cc(N(C(=O)[C@H]2CC[C@H](C)CC2)C2CC=C(F)CC2)c(C(=O)O)s1 (relative stereo) [Compound 15, 5-(3,3-Dimethyl-but-1-ynyl)-3-[(4-fluoro-cyclohex-3-enyl)-(trans-4-methyl-cyclohexanecarbonyl)-amino]-thiophene-2-carboxylic acid]	< 100	10 to 100
CC(CN1CCOCC1)N(c1cc(C#CC(C)(C)C)sc1C(=O)O)C(=O)[C@H]1CC[C@H](C)CC1 (relative stereo) [Compound 72, 5-(3,3-Dimethylbut-1-yn-1-yl)-3-(trans-4-methyl-N-(1-morpholinopropan-2-yl)cyclohexanecarboxamido)thiophene-2-carboxylic acid]	< 100	10 to 100
CC(C)(C)C#Cc1cc(N(Cc2cccnc2)C(=O)[C@H]2CC[C@H](C)CC2)c(C(=O)O)s1 [Compound 1]	< 100	10 to 100
CC(C)(C)C#Cc1cc(N(CC(=O)O)C(=O)[C@H]2CC[C@H](C)CC2)c(C(=O)O)s1 [Compound 2, 3-[Carboxymethyl-(trans-4-methyl-cyclohexanecarbonyl)-amino]-5-(3,3-dimethyl-but-1-ynyl)-thiophene-2-carboxylic acid]	100 to 1000	> 100
CN(C)C(=O)[C@H]1C[C@@H](N(c2cc(C#CC(C)(C)C)sc2C(=O)O)C(=O)[C@H]2CC[C@H](C)CC2)C1 [Compound 11, 5-(3,3-dimethylbut-1-yn-1-yl)-3-(trans-4-methyl-N-(cis-3-(dimethylcarbamoyl)cyclobutyl)cyclohexanecarboxamido)thiophene-2-carboxylic acid]	< 100	10 to 100
C=CCO[C@H]1CC[C@H](N(c2cc(C#CC(C)(C)C)sc2C(=O)O)C(=O)[C@H]2CC[C@H](C)CC2)CC1 [Compound 12, 3-[(trans-4-Allyloxy-cyclohexyl)-(trans-4-methyl-cyclohexanecarbonyl)-amino]-5-(3,3-dimethyl-but-1-ynyl)-thiophene-2-carboxylic acid]	< 100	10 to 100
CC(C)(C)C#Cc1cc(N(C(=O)[C@H]2CC[C@H](C)CC2)C2CCC(F)(F)CC2)c(C(=O)O)s1 [Compound 14, 3-[(4,4-Difluoro-cyclohexyl)-(trans-4-methyl-cyclohexanecarbonyl)-amino]-5-(3,3-dimethyl-but-1-ynyl)-thiophene-2-carboxylic acid]	< 100	10 to 100
CC(C)(C)C#Cc1cc(N(C(=O)[C@H]2CC[C@H](C)CC2)C2CC2)c(C(=O)O)s1 [Compound 16, 3-[Cyclopropyl-(trans-4-methyl-cyclohexanecarbonyl)-amino]-5-(3,3-dimethyl-but-1-ynyl)-thiophene-2-carboxylic acid]	100 to 1000	10 to 100
CC(C)N(c1cc(C#CC2CCCCC2)sc1C(=O)O)C(=O)[C@H]1CC[C@H](C)CC1 [Compound 18, 5-Cyclohexylethynyl-3-[isopropyl-(trans-4-methyl-cyclohexanecarbonyl)-amino]-thiophene-2-carboxylic acid]	1000 to 10000	10 to 100
CC(C)N(c1cc(C#CC(C)(C)O)sc1C(=O)O)C(=O)[C@H]1CC[C@H](C)CC1 [Compound 19, 5-(3-Hydroxy-3-methyl-but-1-ynyl)-3-[isopropyl-(trans-4-methyl-cyclohexanecarbonyl)-amino]-thiophene-2-carboxylic acid]	100 to 1000	> 100
CC(C)N(c1cc(C#CC2CC2)sc1C(=O)O)C(=O)[C@H]1CC[C@H](C)CC1 [Compound 20, 5-Cyclopropylethynyl-3-[isopropyl-(trans-4-methyl-cyclohexanecarbonyl)-amino]-thiophene-2-carboxylic acid]	100 to 1000	10 to 100
CC(C)N(c1cc(C#Cc2ccccc2)sc1C(=O)O)C(=O)[C@H]1CC[C@H](C)CC1 [Compound 21, 3-[Isopropyl-(trans-4-methyl-cyclohexanecarbonyl)-amino]-5-phenylethynyl-thiophene-2-carboxylic acid]	1000 to 10000	10 to 100
COC(C)(C)C#Cc1cc(N(C(=O)[C@H]2CC[C@H](C)CC2)C(C)C)c(C(=O)O)s1 [Compound 22, 3-[Isopropyl-(trans-4-methyl-cyclohexanecarbonyl)-amino]-5-(3-methoxy-3-methyl-but-1-ynyl)-thiophene-2-carboxylic acid]	100 to 1000	10 to 100
CC(C)N(c1cc(C#CC(F)(F)F)sc1C(=O)O)C(=O)[C@H]1CC[C@H](C)CC1 [Compound 23, 3-[Isopropyl-(trans-4-methyl-cyclohexanecarbonyl)-amino]-5-trifluoroprop-1-ynyl-thiophene-2-carboxylic acid]	100 to 1000	10 to 100
Cc1nnc(CN(c2cc(C#CC(C)(C)C)sc2C(=O)O)C(=O)[C@H]2CC[C@H](C)CC2)o1 [Compound 24, 5-(3,3-Dimethyl-but-1-ynyl)-3-[(trans-4-methyl-cyclohexanecarbonyl)-(5-methyl-[1,3,4]oxadiazol-2-ylmethyl)-amino]-thiophene-2-carboxylic acid]		< 10
CC(C)(C)C#Cc1cc(N(CCN2CCOCC2)C(=O)[C@H]2CC[C@H](C)CC2)c(C(=O)O)s1 [Compound 48, 5-(3,3-Dimethylbut-1-yn-1-yl)-3-(trans-4-methyl-N-(2-morpholinoethyl)cyclohexanecarboxamido)thiophene-2-carboxylic acid]	< 100	10 to 100
CC(C)(C)C#Cc1cc(N(C(=O)[C@H]2CC[C@H](C)CC2)[C@H]2CCNC2)c(C(=O)O)s1 [Compound 57, 5-(3,3-Dimethylbut-1-yn-1-yl)-3-((trans)-4-methyl-N-((S)-pyrrolidin-3-yl)cyclohexanecarboxamido)thiophene-2-carboxylic acid]	< 100	> 100
CC(C)(C)C#Cc1cc(N(C(=O)[C@H]2CC[C@H](C)CC2)[C@@H]2CCNC2)c(C(=O)O)s1 [Compound 58, 5-(3,3-Dimethylbut-1-yn-1-yl)-3-((trans)-4-methyl-N—((R)-pyrrolidin-3-yl)cyclohexanecarboxamido)thiophene-2-carboxylic acid]	< 100	> 100
Cn1ccnc1CN(c1cc(C#CC(C)(C)C)sc1C(=O)O)C(=O)[C@H]1CC[C@H](C)CC1 [Compound 64, 5-(3,3-Dimethylbut-1-ynyl)-3-((trans)-4-methyl-N-((1-methyl-1H-imidazol-2-yl)methyl)cyclohexanecarboxamido)thiophene-2-carboxylic acid]	< 100	10 to 100
Cn1cncc1CN(c1cc(C#CC(C)(C)C)sc1C(=O)O)C(=O)[C@H]1CC[C@H](C)CC1 [Compound 66, 5-(3,3-Dimethylbut-1-ynyl)-3-((trans)-4-methyl-N-((1-methyl-1H-imidazol-5-yl)methyl)cyclohexanecarboxamido)thiophene-2-carboxylic acid]	< 100	> 100
Cn1cc(CN(c2cc(C#CC(C)(C)C)sc2C(=O)O)C(=O)[C@H]2CC[C@H](C)CC2)cn1 [Compound 67, 5-(3,3-Dimethylbut-1-ynyl)-3-((trans)-4-methyl-N-((1-methyl-1H-pyrazol-4-yl)methyl)cyclohexanecarboxamido)thiophene-2-carboxylic acid]	100 to 1000	> 100
Cn1ccc(CN(c2cc(C#CC(C)(C)C)sc2C(=O)O)C(=O)[C@H]2CC[C@H](C)CC2)n1 [Compound 71, 5-(3,3-Dimethylbut-1-ynyl)-3-((trans)-4-methyl-N-((1-methyl-1H-pyrazol-3-yl)methyl)cyclohexanecarboxamido)thiophene-2-carboxylic acid]	< 100	10 to 100
CC(C)(C)C#Cc1cc(N(C(=O)c2ccc(Cl)cc2)[C@H]2CC[C@H](O)CC2)c(C(=O)O)s1 [Compound 81, 3-[(4-Chloro-benzoyl)-(trans-4-hydroxy-cyclohexyl)-amino]-5-(3,3-dimethyl-but-1-ynyl)-thiophene-2-carboxylic acid]	100 to 1000	
Cc1ccc(C(=O)N(c2cc(C#CC(C)(C)C)sc2C(=O)O)[C@H]2CC[C@H](O)CC2)c(Cl)c1 [Compound 84, 3-[(2-Chloro-4-methyl-benzoyl)-(trans-4-hydroxy-cyclohexyl)-amino]-5-(3,3-dimethyl-but-1-ynyl)-thiophene-2-carboxylic acid]	< 100	
CC(C)(C)C#Cc1cc(N(C(=O)c2ccccc2Cl)[C@H]2CC[C@H](O)CC2)c(C(=O)O)s1 [Compound 87, 3-[(2-Chloro-benzoyl)-(trans-4-hydroxy-cyclohexyl)-amino]-5-(3,3-dimethyl-but-1-ynyl)-thiophene-2-carboxylic acid]	1000 to 10000	
Cc1ccccc1C(=O)N(c1cc(C#CC(C)(C)C)sc1C(=O)O)[C@H]1CC[C@H](O)CC1 [Compound 88, 5-(3,3-Dimethyl-but-1-ynyl)-3-[(trans-4-hydroxy-cyclohexyl)-(2-methyl-benzoyl)-amino]-thiophene-2-carboxylic acid]	100 to 1000	
Cc1ccc(C(=O)N(c2cc(C#CC(C)(C)C)sc2C(=O)O)[C@H]2CC[C@H](O)CC2)c(F)c1F [Compound 89, 3-[(2,3-Difluoro-4-methyl-benzoyl)-(trans-4-hydroxy-cyclohexyl)-amino]-5-(3,3-dimethyl-but-1-ynyl)-thiophene-2-carboxylic acid]	< 100	
CC(C)(C)C#Cc1cc(N(C(=O)c2ccc(F)cc2)[C@H]2CC[C@H](O)CC2)c(C(=O)O)s1 [Compound 92, 5-(3,3-Dimethyl-but-1-ynyl)-3-[(4-fluoro-benzoyl)-(trans-4-hydroxy-cyclohexyl)-amino]-thiophene-2-carboxylic acid]	1000 to 10000	
CC(C)(C)C#Cc1cc(N(C(=O)c2ccc(Cl)c(F)c2)[C@H]2CC[C@H](O)CC2)c(C(=O)O)s1 [Compound 94, 3-[(4-Chloro-3-fluoro-benzoyl)-(trans-4-hydroxy-cyclohexyl)-amino]-5-(3,3-dimethyl-but-1-ynyl)-thiophene-2-carboxylic acid]	100 to 1000	
